Assay [1] relates to rat hippocampal neurons. Nature of the assay: Labeling of neuronal lipids with [14C]methyl choline. The format is cell-based. The settings on record: after 4-days of treatment, remained elevated for at least 8-days. The method, then: Neurons were incubated for 48 h with 1 μCi [^14C]methyl choline/ml of culture medium. Subsequently, medium was removed and the neurons were washed 3-times with phosphate-buffered saline. Neurons were removed from the cover slips by scraping with a rubber policeman into 2 ml of cold methanol, and then sonicated. Part of the resulting suspension was used for lipid analysis, part for analysis of the incorporation of total radioactivity into the cells, and part for DNA analysis (see below).
Lipids were extracted by addition of chloroform to obtain a final chloroform/methanol ratio of 1:1 (v/v). The lower phase was dried under N2 and the upper phase was kept for analysis of [^14C]methyl choline incorporation into water-soluble metabolites. […] One ml of methanol and 5 ml of Optima Gold scintillation fluid (Packard, Downers Groove, Ill.) were added to each vial for scintillation counting, and radioactivity was determined in a Packard 2100 beta radiospectrometer equipped with the Transformed Spectral Index of the External Standard/Automatic Efficiency Control (tSIE/AEC) program for quench correction and counting of double radiolabeled samples.

Assay [2] deals with rat hippocampal neurons. The assay is described as follows: [14C]PC degradation and acetolysis of [14C]PC in neurons. The settings on record: CBE-treated neurons. The class given is cell-based. The method, then:
In some cases, acetolysis was performed to determine the amount of [^14C]-radioactivity that remained in the [^14C]methyl choline head group moiety of [^14C]PC after 48 h labeling with [^14C]methyl choline. [^14C]PC was removed from TLC plates by scraping, eluted from the silica using chloroform/methanol/acetic acid/water (50:39:1:10, v/v/v/v), and subjected to acetolysis. Briefly, 2 ml of acetic anhydride/acetic acid (2:3, v/v) was added to the tubes containing [^14C]PC, the mixture heated at 140° C. for 16 h, 200 μl of water added to each tube, dried under N2, and separated into aqueous and organic phases. […] [^14C]-Lipids and the [^14C]-head group polar moieties were analyzed and quantified as above.
Since metabolic labeling with [^14C]methyl choline was performed for up to 48 h (due to the relatively low amount of neurons available), we analyzed whether the increase in [^14C]methyl choline levels was due to changes in the rate of [^14C]PC synthesis or in the rate of [^14C]PC degradation. Neurons were incubated with [^14C]methyl choline to metabolically label [^14C]PC, and the rate of [^14C]PC degradation measured. No difference in the rate of degradation between control and CBE-treated neurons was detected (FIG. 3). […]

In another assay the test system is CCT α and β1/2 RNA. The assay is described as follows: RT-PCR of CCT isoforms in treated neurons. The class given is cell-based, rat. The settings on record: 500 μM CBE, up to 8-days. The method, then:
Total cellular RNA was prepared from ˜0.5×10^6 neurons grown on 24 mm cover slips using the RNeasy Mini Kit (Qiagen, Hilden, Germany) according to manufacturers'instructions. The reverse transcription-polymerase chain reaction (RT-PCR) was performed using the QIAGEN OneStep RT-PCR kit (Qiagen, Hilden, Germany). Briefly, each reaction contained 10 ng of total RNA, 0.6 μM of primers, 1.6 mM deoxynucleotide triphosphates (0.4 mM each) and 1 μl QIAGEN OneStep RT-PCR Enzyme Mix in the supplied buffer in a total volume of 25 μl. Primers (CCT: 5′-ACTTTAGTAA GCCCTATGTC (SEQ ID NO. 7) and 5′-[…] (SEQ ID NO. 8), 34 cycles, annealing temperatures 53° C.; CCT: 5′-[…] (SEQ ID NO. 9) and 5′-[…] (SEQ ID NO. 10), 30 cycles, annealing temperature 51° C.; glyceraldehyde -3-phosphate dehydrogenase: 5′-TTAGCACCCCTGGCCAAGG (SEQ ID NO. 11) and 5′- ATTACTCCTT GGAGGCCATG (SEQ ID NO. 12), 23 cycles, annealing temperature 50° C.) were designed using the MacMolly Tetra program (Sofigene, Berlin, Germany) and were synthesized by the Weizmann Institute Oligonucleotide and Peptide Synthesis facility. […] PCR products, 9 μl each, were analyzed by electrophoresis in 1.5 % agarose gels.

For assay [3], the system named is rat hippocampal neurons. The settings on record: 500 μM CBE for 4- or 8-days; cited from earlier work.

Consider 1 compound from US7429460B2, “Methods of screening for inhibitors of phospholipid synthesis related to glycolipid-storage diseases” (Yeda Research and Development Co., Ltd., priority 2003, dated 2008).

`O[C@H]1[C@H](O)[C@@H](O)[C@@H]2O[C@@H]2[C@@H]1O` (racemic) [CBE, conduritol-B-epoxide]: the “[14C]methyl choline incorporation into [14C]SM and [14C]PC” value in the assay with rat hippocampal neurons [1] is reported as “significant increase”. The “rate of [14C]PC degradation versus control” value with rat hippocampal neurons [2] is given as “No difference”. Besides, the “CCT RNA levels (RT-PCR)” value in the assay on CCT α and β1/2 RNA is on record as “No changes”. Further, the “increase in the rate of incorporation of [3H]dihydrosphingosine into [3H]GlcCer” value with rat hippocampal neurons [3] is 4-5 fold.
